In patent publication US20190240296A1, “TREATMENT OF DISEASES MEDIATED BY VASCULAR HYPERPERMEABILITY” (AMPIO PHARMACEUTICALS, INC., priority 2016, published 2019):

System: acetylated α-tubulin in HREC
Assay: Immunofluorescence staining for acetylated α-tubulin in HREC
Format: cell-based, human
Conditions: 3 hours
Protocol: HREC were grown on glass bottom 24-well tissue culture plates (Cellvis, Mountain View, Calif.) coated with 2% gelatin in EGM-2. The medium was then exchanged with a combination of 500 μL saline, 2× working dilutions of compounds to be tested prepared in saline, or LMWFHSA together with 500 μl EGM-2 and incubated for the indicated times. Following treatment, the cells were fixed using 10% neutral buffered formalin for 10 minutes and permeabilized with 0.1% Triton X-100 in PBS for 5 minutes. 4% goat serum (ThermoFisher Scientific) prepared in PBS was used to block the cells for 1 hour then the cells were exposed to anti-acetylated α-tubulin clone 6-11B-1 antibody (1:1000; Santa Cruz Biotechnology, Santa Cruz, Calif.) in blocking solution overnight at 4° C. Alexa fluor 488 conjugated anti-mouse IgG (1:1000; Invitrogen, Carlsbad, Calif.) was then added for 1 hour followed by DAPI counter staining (300 nM in PBS; ThermoFisher Scientific) for 5 minutes. Randomly selected frames were photographed on an inverted microscope (Zyla sCMOS camera; Andor, South Windsor, Conn. and eclipse Ti; Nikon, Melville, N.Y.) and fluorescent intensity measured using ImageJ software (http://imagej.nih.gov/ij) (Schneider C A, et al. NIH Image to ImageJ: 25 years of image analysis. Nature methods 2012; 9:671-675). For normalization, the number of DAPI staining nuclei was determined for each frame and data presented as median FU/DAPI objects.

Row | Compound | inhibition at 10 µM (Homo sapiens, 10 μM LY294002 with LMWFHSA, four experiments in triplicate, 95% CI 29-19, read-out: reduction of LMWFHSA-induced α-tubulin acetylation (percent inhibition)) [%] | increase of α-tubulin acetylation versus saline-DMSO controls (10 μM SB203580 with LMWFHSA, 95% CI 63-51) [%] | increase of α-tubulin acetylation versus LMWF5A-DMSO treated cells (10 μM SB203580 with LMWFHSA, 95% CI 236-208) [%]
1 | O=c1cc(N2CCOCC2)oc2c(-c3ccccc3)cccc12 [LY294002] | 24 | – | –
2 | C[S+]([O-])c1ccc(-c2nc(-c3ccncc3)c(-c3ccc(F)cc3)[nH]2)cc1 (stereo not drawn) [SB203580] | – | 57 | 222
